The subject of data set [1] is NRF2 (nuclear factor erythroid 2-related factor 2). Kind of data set: NRF2 +/-GSH activation assay (DiscoverX PathHunter NRF2 translocation kit, U2OS cells). It is filed as cell-based. Conditions: Homo sapiens.
Data set [2] deals with plasma protein. Kind of data set: Plasma protein binding (rapid equilibrium dialysis), mouse. It counts as in vitro ADME. Particulars: 5 μM compound, 4 hours. How it is done: (§1) Equilibrium dialysis is an accurate and reliable method for determining protein binding affinities to chemical or biological substances of low molecular weight. The Rapid Equilibrium Dialysis (RED) plate is specifically designed and extensively validated for plasma protein binding assays. It is also designed for minimal non-specific binding (Thermo Fisher).
(§2) • Phosphate buffered saline (PBS) pH 7.4 was prepared using PBS tablets as per the manufacturer's instructions. • Compound and marker stocks were prepared at 10 mM in DMSO and further diluted to 100× the assay concentration in DMSO. • Plasma was thawed on the day of the assay and centrifuged. The supernatant was transferred to a fresh vessel and the pH adjusted to pH 7.4 using lactic acid or sodium hydroxide.
(§3) Pre-prepared 100× assay compound stocks were spiked 1:100 into pH adjusted plasma. 200 μL of spiked plasma was added to the red compartment of the rapid equilibrium dialysis (RED) device for each replicate. 350 μL of PBS was added to the buffer compartment. The plate was sealed with a breathable lid and shaken on an orbital shaker in a 37° C. incubator, 5% CO2 for 4 hours.
(§4) Standard final incubation conditions were 5 μM compound in plasma containing 1% (v/v) DMSO.
(§5) A sample of the plasma/compound mixture was taken, mixed with an equal volume of PBS and quenched 1:3 with ice-cold acetonitrile containing internal standard. Methanol was also added to matrix match with calibration curve samples. This was the t=0 sample.
(§6) Post-incubation, plasma and buffer were sampled from their respective RED device compartments into separate tubes containing an equal volume of the alternate matrix for each replicate. Samples were quenched 1:3 with ice-cold acetonitrile containing internal standard. Methanol was also added to matrix match with calibration curve samples.
Calibration curves were prepared in methanol and spiked such that the matrix was equivalent to the assay samples. […]
(§7) Fraction unbound, percent bound and percent recovery were the standard assay parameters reported. They were calculated using the following equations: […]

The test system of another data set is IL-6. Kind of data set: THP-1 AlphaLISA IL-6 cytokine assay (differentiated THP-1 cells). It counts as cell-based. Particulars: Homo sapiens. The method, boiled down:
(§8)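 PMA-differentiated THP-1 cells were preincubated 30 min with compound, stimulated with LPS for 24 h, then nigericin for 1 h, all at 37 °C. Supernatant IL-1β and IL-6 were quantified by AlphaLISA. % inhibition is normalised to +LPS and −LPS controls per cytokine.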

For the next data set, the system named is IL-1β. Kind of data set: THP-1 AlphaLISA IL-1β cytokine assay (differentiated THP-1 cells). It counts as cell-based. Conditions: Homo sapiens. The method, boiled down: as §8
Data set [3] in a line: Hepatocyte stability assay, human. It is filed as in vitro ADME. Conditions: human, hepatocytes, T½. The method, boiled down: (§9)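 Cryopreserved hepatocytes at 0.5×10^6 cells/mL in Leibovitz buffer, 37 °C, with 10 μM compound (0.1% DMSO), duplicate. Samples at 0-60 min, acetonitrile quench, LC-MS/MS; intrinsic clearance and half-life from ln % remaining versus time, with buffer-only incubations as control.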

For data set [4], the system named is cryo-preserved hepatocytes. Kind of data set: Hepatocyte stability assay, human. It counts as in vitro ADME. Conditions: human, hepatocytes. The method, boiled down:
as §9

Data set [5] can be described thus: Hepatocyte stability assay, mouse. It is filed as in vitro ADME. Conditions: mouse, hepatocytes, T½. The method, boiled down: as §9
For data set [6], the system named is cryo-preserved hepatocytes. Kind of data set: Hepatocyte stability assay, mouse. It is filed as in vitro ADME. Particulars: mouse, hepatocytes. The method, boiled down: as §9
Data set [7] relates to plasma protein. Kind of data set: Plasma protein binding (rapid equilibrium dialysis), human. It counts as in vitro ADME. Conditions: for Binding (%): Human plasma, 5 μM compound, 4 hours. On the procedure:
as §1, §2, §3, §4, §5, §6
Calibration curves were prepared in methanol and spiked such that the matrix was equivalent to the assay samples.
Quenched samples were mixed thoroughly and protein precipitated at −20° C. for a minimum of 12 hours. Samples were then centrifuged at 4° C. Supernatants were transferred to a fresh 96 well plate for analysis.
Positive control markers were included.
as §7
An example compound of formula (I) was tested in this assay. Reference Example 2 (RE2) (which corresponds to Example 49 in WO2020/222011 (Sitryx Therapeutics, 2020)) was used as a comparator compound.

Molecules are shown by their SMILES. Read-outs that look alike come from different tables or passages of the source.

For the compound `C=C(CC(=O)N[C@@H](C)c1ccc(C(F)(F)F)cc1)C(=O)O` [Example 3, (S)-2-methylene-4-oxo-4-((1-(4-(trifluoromethyl)phenyl)ethyl)amino)butanoic acid], the EC50 was above 100 µM in data set [1] (U2OS, 6 h, read-out: NRF2 activation EC50, +GSH) and above 100 µM in data set [1] (U2OS, 6 h, read-out: NRF2 activation EC50, −GSH). Moreover, the Emax was found to be 0% in [1] (U2OS, read-out: NRF2 activation Emax, +GSH) and 0% in [1] (U2OS, read-out: NRF2 activation Emax, −GSH). The “Binding (%)” value with plasma protein [2] was found to be 86.8%; in the data set on plasma protein [7] it was 89.0%. The IC50 is above 82.5 µM with IL-6 (THP-1, read-out: IL-6 (IC50)); 2.2 µM in the data set with IL-1β (THP-1, read-out: IL-1β (IC50)); 4 µM with IL-1β (THP-1, read-out: IL-1β (IC50), data from repeated experiments). Moreover, the half-life at 10 μM in data set [3] is above 7.67 h; in data set [3] (data from repeated experiments) it was 5.97 h; in data set [5] it was 6.7 h; in [5] (data from repeated experiments) it was above 7.67 h. The Clint in data set [4] was 4 μL min^−1 10^−6 cells; in data set [6] it was below 3 μL min^−1 10^−6 cells. Moreover, in the data set with plasma protein [7] (Table 4, human and mouse plasma), the “plasma protein binding compared to prior art ester compound (in words)” value is reported as “lower plasma protein binding”.

Turning to `C=C(CC(=O)NC(C)(C)c1ccc(C(F)(F)F)cc1)C(=O)O` [Example 4, 2-methylene-4-oxo-4-((2-(4-(trifluoromethyl)phenyl)propan-2-yl)amino)butanoic acid], the Emax in [1] (U2OS, +GSH, normalised to dimethyl fumarate high control, read-out: NRF2 activation Emax, +GSH) is 0%; in [1] (U2OS, −GSH, normalised to dimethyl fumarate high control, read-out: NRF2 activation Emax, −GSH), 1%. Moreover, the EC50 in data set [1] (+GSH, U2OS PathHunter cells, 6 hours, read-out: NRF2 activation EC50, +GSH) was above 100 µM; in data set [1] (−GSH, U2OS PathHunter cells, 6 hours, read-out: NRF2 activation EC50, −GSH) it was above 100 µM. In addition, the “Binding (%)” value came to 83.7% with plasma protein [2] and 89.2% with plasma protein [7]. For the same compound, the IC50 is above 63.1 µM in the data set with IL-6 (THP-1, differentiated THP-1 cells, LPS 24 hr then Nigericin 1 hour, read-out: IL-6 (IC50)); 3.4 µM with IL-1β (THP-1, differentiated THP-1 cells, LPS 24 hr then Nigericin 1 hour, read-out: IL-1β (IC50)); 3.9 µM in the data set on IL-1β (THP-1, differentiated THP-1 cells, footnote a: data from repeated experiments, read-out: IL-1β (IC50), data from repeated experiments). The figures for the half-life at 10 μM in data set [3] and in [5] were 6.5 h and above 7.67 h, respectively. Further, the Clint is given as below 3 μL min^−1 10^−6 cells in [4] and 3 μL min^−1 10^−6 cells in [6]. The T½ in data set [4] (10 μM) is above 7.67 h.
